Results reported in PubChem BioAssay AID248 (DTP/NCI, 2004).
Values joined by “and” are separate entries in the source; they are usually repeats but may differ in a detail not shown here. Equal entries are not always repeated. Inconclusive results and toxic doses are left out.

Test system: L1210 leukemia ip in BDF1 mice, survival T/C
Assay: NCI In Vivo Anticancer Drug Screen. Data for tumor model L1210 Leukemia (intraperitoneal) in B6D2F1 (BDF1) mice
Conditions: endpoint: mean survival time, higher = longer survival
Procedure, shortened: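 Transplanted-tumor mice were given test agent; controls received vehicle only. Survival readings from the two groups were divided (treated over control).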

[1] = dose: 100.0 mg/kg/injection, schedule: Q04DX003 (ip), vehicle: saline with Tween-80
[2] = dose: 200.0 mg/kg/injection, schedule: Q04DX003 (ip), vehicle: saline with Tween-80
[3] = dose: 400.0 mg/kg/injection, schedule: Q04DX003 (ip), vehicle: saline with Tween-80
[4] = dose: 100.0 mg/kg/injection, schedule: Q04DX002 (ip), vehicle: saline
[5] = dose: 200.0 mg/kg/injection, schedule: Q04DX002 (ip), vehicle: saline
[6] = dose: 400.0 mg/kg/injection, schedule: Q04DX002 (ip), vehicle: saline

SMILES: CCCCCCCc1nc(/N=N/N(C)C)c(C(N)=O)[nH]1
- T/C [1]: 101 % of control
- T/C (dose: 200.0 mg/kg/injection, schedule: Q01DX009 (ip), vehicle: saline with Tween-80): 91 % of control
- T/C [2]: 98 % of control
- T/C [3]: 110 % of control

SMILES: Cc1cc(OCCCC(=O)O)ccc1Cl
- T/C (dose: 50.0 mg/kg/injection, schedule: Q01DX001 (ip), vehicle: saline): 104 % of control
- T/C (dose: 100.0 mg/kg/injection, schedule: Q01DX001 (ip), vehicle: saline): 104 % of control
- T/C (dose: 200.0 mg/kg/injection, schedule: Q01DX001 (ip), vehicle: saline): 102 % of control
- T/C (dose: 400.0 mg/kg/injection, schedule: Q01DX001 (ip), vehicle: saline): 96 % of control

SMILES: O=C(O)C(Oc1ccc(Cl)cc1Cl)C(Oc1ccc(Cl)cc1Cl)C(=O)O (stereo unspecified)
- T/C (dose: 100.0 mg/kg/injection, schedule: Q04DX002 (ip), vehicle: carboxymethylcellulose (CMC)): 98 % of control
- T/C (dose: 200.0 mg/kg/injection, schedule: Q04DX002 (ip), vehicle: carboxymethylcellulose (CMC)): 88 % of control
- T/C (dose: 400.0 mg/kg/injection, schedule: Q04DX002 (ip), vehicle: Klucel (hydroxypropylcellulose) (HPC)): 155 % of control
- T/C (dose: 400.0 mg/kg/injection, schedule: Q04DX002 (ip), vehicle: carboxymethylcellulose (CMC)): 92 % of control
- T/C (dose: 800.0 mg/kg/injection, schedule: Q04DX002 (ip), vehicle: carboxymethylcellulose (CMC)): 98 % of control

SMILES: Cc1cc(O)c(C)c2c1CC[C@H]1[C@@H]2OC(=O)[C@@H]1C
- T/C (dose: 100.0 mg/kg/injection, schedule: Q01DX001 (ip), vehicle: other): 98 % of control
- T/C (dose: 200.0 mg/kg/injection, schedule: Q01DX001 (ip), vehicle: other): 92 % of control
- T/C (dose: 400.0 mg/kg/injection, schedule: Q01DX001 (ip), vehicle: other): 97 % of control

SMILES: CN(C(=O)c1cccnc1)c1ccccc1
- T/C [1]: 94 % of control
- T/C [2]: 96 % of control
- T/C [3]: 107 % of control

SMILES: CC(C)(CS(C)(=O)=O)NC(=O)NCCCl
- T/C [4]: 103 % of control
- T/C [5]: 92 % of control
- T/C [6]: 103 % of control

SMILES: O=C1NC(=O)C2(CCCc3ccccc32)N1 (stereo unspecified)
- T/C (dose: 25.0 mg/kg/injection, schedule: Q04DX002 (ip), vehicle: Klucel (hydroxypropylcellulose) (HPC)): 110 % of control
- T/C (dose: 50.0 mg/kg/injection, schedule: Q04DX002 (ip), vehicle: Klucel (hydroxypropylcellulose) (HPC)): 104 % of control
- T/C (dose: 100.0 mg/kg/injection, schedule: Q04DX002 (ip), vehicle: Klucel (hydroxypropylcellulose) (HPC)): 100 % of control

SMILES: COc1cc2cc3cc4cc(OC)c(OC)cc4c(C)[n+]3cc2cc1OC (tested in a mixture with another compound)
- T/C (dose: 2.5 mg/kg/injection, schedule: Q01DX009 (ip), vehicle: saline): 106 % of control
- T/C (dose: 5.0 mg/kg/injection, schedule: Q01DX009 (ip), vehicle: saline): 108 % of control and 118 % of control
- T/C (dose: 10.0 mg/kg/injection, schedule: Q01DX009 (ip), vehicle: saline): 108 % of control
- T/C (dose: 20.0 mg/kg/injection, schedule: Q01DX009 (ip), vehicle: saline): 104 % of control
- T/C (dose: 40.0 mg/kg/injection, schedule: Q01DX009 (ip), vehicle: saline): 110 % of control and 111 % of control
- T/C (dose: 80.0 mg/kg/injection, schedule: Q01DX009 (ip), vehicle: saline): 92 % of control

SMILES: CC(C)CC(NC(=O)C(C)NC(=O)OCc1ccccc1)C(=O)OCc1ccccc1 (stereo unspecified)
- T/C [1]: 92 % of control
- T/C [2]: 92 % of control
- T/C [3]: 91 % of control

SMILES: COc1ccccc1[As](=O)(O)CC(O)COc1ccccc1 (stereo unspecified)
- T/C (dose: 25.0 mg/kg/injection, schedule: Q04DX003 (ip), vehicle: saline with Tween-80): 91 % of control

SMILES: O=C1N(O)C2(CCCC(O)C2O)C(=O)C12CCCCC2 (stereo unspecified)
- T/C (dose: 75.0 mg/kg/injection, schedule: Q01DX001 (ip), vehicle: saline): 103 % of control
- T/C (dose: 150.0 mg/kg/injection, schedule: Q01DX001 (ip), vehicle: saline): 96 % of control
- T/C (dose: 300.0 mg/kg/injection, schedule: Q01DX001 (ip), vehicle: saline): 96 % of control

SMILES: C=CCC(O)c1ccccc1 (stereo unspecified)
- T/C [4]: 103 % of control
- T/C [5]: 100 % of control
- T/C [6]: 113 % of control

SMILES: O=C(O)CC(C(=O)O)C1C=CCC1 (stereo unspecified)
- T/C (dose: 100.0 mg/kg/injection, schedule: Q01DX009 (ip), vehicle: saline): 97 % of control
- T/C (dose: 200.0 mg/kg/injection, schedule: Q01DX009 (ip), vehicle: saline): 115 % of control
- T/C (dose: 400.0 mg/kg/injection, schedule: Q01DX009 (ip), vehicle: saline): 101 % of control

SMILES: CCCCCSc1nccc(N)n1
- T/C (dose: 100.0 mg/kg/injection, schedule: Q01DX001 (ip), vehicle: saline with Tween-80): 97 % of control
- T/C (dose: 200.0 mg/kg/injection, schedule: Q01DX001 (ip), vehicle: saline with Tween-80): 103 % of control
